Measured values from ChEMBL document CHEMBL1145418, “Cerebrosides and tocopherol trimers from the seeds of Euryale ferox” (J Nat Prod, 2007).

How the values were obtained:
[1] = (§1) Toxicity against brine shrimp after 24 hr by brine shrimp lethality test; type: organism-based; details: artemia, in vivo
Artemia = test: as §1; type: organism-based; details: in vivo, 24 h

SMILES | LC50 at 24 h [1] [µM] | Activity (Artemia)
CCCCCCC/C=C/CC/C=C/[C@@H](O)[C@H](CO[C@@H]1O[C@H](CO)[C@@H](O)[C@H](O)[C@H]1O)NC(=O)[C@H](O)CCCCCCCCCCCCCCCCCCCCCC | 200 | –
CC1=C(C)[C@]23Oc4c(C)c(C)c5c(c4C[C@]2(CC[C@@](C)(CCCC(C)CCCC(C)CCCC(C)C)O3)C2(CCc3c4c(c(C)c(C)c3O2)O[C@](C)(CCCC(C)CCCC(C)CCCC(C)C)CC4)C1=O)CC[C@@](C)(CCCC(C)CCCC(C)CCCC(C)C)O5 (stereo partly specified) [TOCOPHEROL TRIMER IVA] | – | Non-toxic
CC1=C(C)[C@@]23Oc4c(C)c(C)c5c(c4C[C@@]2(CC[C@@](C)(CCCC(C)CCCC(C)CCCC(C)C)O3)C2(Cc3c4c(c(C)c(C)c3O2)O[C@](C)(CCCC(C)CCCC(C)CCCC(C)C)CC4)C1=O)CC[C@@](C)(CCCC(C)CCCC(C)CCCC(C)C)O5 (stereo partly specified) [FEROTOCOTRIMER C] | – | Non-toxic
CC1=C(C)[C@]23Oc4c(C)c(C)c5c(c4C[C@]2(CC[C@@](C)(CCCC(C)CCCC(C)CCCC(C)C)O3)C2(Cc3c4c(c(C)c(C)c3O2)O[C@](C)(CCCC(C)CCCC(C)CCCC(C)C)CC4)C1=O)CC[C@@](C)(CCCC(C)CCCC(C)CCCC(C)C)O5 (stereo partly specified) [FEROTOCOTRIMER D] | – | Non-toxic
CCCCCCC/C=C/CC/C=C/[C@@H](O)[C@H](CO[C@@H]1O[C@H](CO)[C@@H](O)[C@H](O)[C@H]1O)NC(=O)[C@H](O)CCCCCCCCCCCCCCCCCCCC | 170 | –
CC1=C(C)[C@@]23Oc4c(C)c(C)c5c(c4C[C@@]2(CC[C@@](C)(CCCC(C)CCCC(C)CCCC(C)C)O3)C2(CCc3c4c(c(C)c(C)c3O2)O[C@](C)(CCCC(C)CCCC(C)CCCC(C)C)CC4)C1=O)CC[C@@](C)(CCCC(C)CCCC(C)CCCC(C)C)O5 (stereo partly specified) [TOCOPHEROL TRIMER IVB] | – | Non-toxic
